Laboratory results taken from PubChem BioAssay (NCI).
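How tested: cells in 96-well plates exposed to compound for 48 hours at five concentrations. Here, GI50 denotes the concentration required for 50% inhibition of growth. TGI is the concentration that stops growth completely.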

Key:
Experiment in all cases: DTP human tumour cell line panel, 48 h
[1] = tested on: OVCAR-3 ovarian
[2] = tested on: DU-145 prostate
[3] = tested on: NCI-H23 lung
[4] = tested on: OVCAR-8 ovarian
[5] = tested on: EKVX NSCLC
[6] = tested on: CCRF-CEM leukemia
[7] = tested on: T-47D breast
[8] = tested on: U251 CNS
[9] = tested on: SK-MEL-28 melanoma
[10] = tested on: BT-549 breast

Compound	GI50 [1]	TGI [1]	GI50 [2]	TGI [2]	GI50 [3]	TGI [3]	GI50 [4]	TGI [4]	GI50 [5]	TGI [5]	GI50 [6]	TGI [6]	GI50 [7]	TGI [7]	GI50 [8]	TGI [8]	GI50 [9]	TGI [9]	GI50 [10]	TGI [10]
Cn1cnc([N+](=O)[O-])c1S(=O)(=O)Oc1ccccc1	2.14 µM	4.3 µM	5.6 µM	17 µM	15 µM	37.9 µM	22.6 µM	> 92.7 µM	17 µM	41.2 µM	3.75 µM	> 100 µM	2.3 µM	7.73 µM	23.5 µM	> 66.3 µM	8.61 µM	32.2 µM	20.7 µM	45.4 µM
Oc1cc(O)c2c(c1)OC(c1ccc(O)c(O)c1)C(OC1(c3cc(O)c(O)c(O)c3)Oc3cc(O)cc(O)c3C(O)C1O)C2 (centres undefined)	–	> 80 µM	–	> 75.5 µM	–	50.4 µM	–	> 67.7 µM	–	41.6 µM	–	43.7 µM	–	> 100 µM	–	46.2 µM	–	> 68.5 µM	–	> 83.6 µM
C=CC(=O)N1CCC(C2CCNc3c(C(N)=O)c(-c4ccc(Oc5ccccc5)cc4)nn32)CC1 (centres undefined)	12.2 µM	56.2 µM	11.6 µM	> 100 µM	16.5 µM	39.9 µM	16.9 µM	59.2 µM	3.49 µM	42 µM	24.8 µM	> 100 µM	1.4 µM	28.4 µM	19.7 µM	96.3 µM	18.7 µM	45.1 µM	12.9 µM	52.4 µM
CC1(C)OCCn2c1nc1c(N3CCOCC3)nc(-c3cnc(N)nc3)nc12	0.308 µM	> 31.5 µM	0.354 µM	> 100 µM	0.484 µM	> 100 µM	0.404 µM	11.2 µM	0.16 µM	2.64 µM	1.06 µM	> 100 µM	0.0325 µM	0.248 µM	0.673 µM	34 µM	0.231 µM	4.08 µM	0.183 µM	2.91 µM
CCN(CC)CCOc1ccc(/C=C2\CC3C4CC=C5C[C@@H](O)CC[C@]5(C)C4CC[C@]3(C)C2=O)cc1OC (some centres undefined)	1.71 µM	9.04 µM	9.51 µM	21.4 µM	7.71 µM	> 60.6 µM	1.92 µM	3.74 µM	9.56 µM	> 52.1 µM	–	> 22 µM	2.79 µM	> 100 µM	2.41 µM	6.37 µM	9.61 µM	73.4 µM	26 µM	> 52.6 µM
C=CCCCCCCCCCCC1(O)C=CC2=[N+](CCCCCN=C(N)N)CCCN21 (centres undefined)	13 µM	36.8 µM	12.2 µM	26.6 µM	12.9 µM	32.3 µM	7.24 µM	26.1 µM	10.8 µM	26.7 µM	8.57 µM	40.3 µM	22 µM	55.6 µM	1.49 µM	13.9 µM	13.6 µM	31.8 µM	3.56 µM	13.2 µM
Cc1nc2ccccc2nc1-c1ccc(N=[N+]([O-])c2ccc(-c3nc4ccccc4nc3C)cc2)cc1	–	> 100 µM	–	> 100 µM	–	> 100 µM	–	> 100 µM	–	> 100 µM	–	> 100 µM	–	> 100 µM	–	> 63.2 µM	–	> 100 µM	–	> 100 µM
CCOc1ccc2nc(S/C(=C/C=C(C#N)C#N)c3ccc(C)cc3)sc2c1	32.6 µM	> 100 µM	40.5 µM	> 100 µM	35.6 µM	97.3 µM	32.8 µM	> 100 µM	> 100 µM	> 100 µM	2.05 µM	5.52 µM	42.4 µM	> 100 µM	29.4 µM	> 100 µM	31.1 µM	> 100 µM	25.6 µM	70.1 µM
